Measurements: patent US8598365B2, “Herbicides” (Syngenta Limited, priority 2007, dated 2013)

system: Alopecurus myosuroides (ALOMY); experiment: Example B pre-emergence herbicidal activity; format: in vivo; settings: 312 h, rate 250 g/ha, evaluated after 13 days, read-out: Pre-Emergence Activity ALOMY (100=total damage to plant; 0=no damage to plant)
Experimental: (§1) Seeds of a variety of test species were sown in standard soil in pots. After cultivation for one day (pre-emergence) or after 8 days cultivation (post-emergence) under controlled conditions in a glasshouse (at 24/16° C., day/night; 14 hours light; 65% humidity), the plants were sprayed with an aqueous spray solution derived from the formulation of the technical active ingredient in acetone/water (50:50) solution containing 0.5% Tween 20 (polyoxyethelyene sorbitan monolaurate, CAS RN 9005-64-5).
(§2) The test plants were then grown in a glasshouse under controlled conditions in a glasshouse (at 24/16° C., day/night; 14 hours light; 65% humidity) and watered twice daily. After 13 days for pre and post-emergence, the test was evaluated (100=total damage to plant; 0=no damage to plant).
(§3) Alopecurus myosuroides (ALOMY), Avena fatua (AVEFA), Setaria faberi (SETFA), Echinochloa crus-galli (ECHCG), Solanum nigrum (SOLNI) and Amaranthus retoflexus (AMARE)

| Structure (SMILES) | pest or weed control at 250 g/ha [%] |
| --- | --- |
| CCc1sc(-c2ccccc2)nc1C1C(=O)[C@@H]2CC[C@@H](C2)C1=O (stereo partly drawn) [Compound T93] | 20 |
| CCc1sc(-c2ccc(Cl)s2)nc1C1C(=O)[C@@H]2CC[C@@H](C2)C1=O (stereo partly drawn) [Compound T36] | 60 |
| Cc1sc(-c2ccc(I)cc2)nc1C1C(=O)[C@@H]2CC[C@@H](C2)C1=O (stereo partly drawn) [Compound T30] | 90 |

system: Amaranthus retoflexus (AMARE); experiment: Example B pre-emergence herbicidal activity; format: in vivo; settings: Amaranthus retroflexus, 312 h, rate 250 g/ha, evaluated after 13 days, read-out: Pre-Emergence Activity AMARE (100=total damage to plant; 0=no damage to plant)
Experimental: as §1, §2, §3

| Structure (SMILES) | pest or weed control at 250 g/ha [%] |
| --- | --- |
| CCc1sc(-c2ccccc2)nc1C1C(=O)[C@@H]2CC[C@@H](C2)C1=O (stereo partly drawn) [Compound T93] | 0 |
| CCc1sc(-c2ccc(Cl)s2)nc1C1C(=O)[C@@H]2CC[C@@H](C2)C1=O (stereo partly drawn) [Compound T36] | 0 |
| Cc1sc(-c2ccc(I)cc2)nc1C1C(=O)[C@@H]2CC[C@@H](C2)C1=O (stereo partly drawn) [Compound T30] | 20 |

system: Avena fatua (AVEFA); experiment: Example B pre-emergence herbicidal activity; format: in vivo; settings: 312 h, rate 250 g/ha, evaluated after 13 days, read-out: Pre-Emergence Activity AVEFA (100=total damage to plant; 0=no damage to plant)
Experimental: as §1, §2, §3

| Structure (SMILES) | pest or weed control at 250 g/ha [%] |
| --- | --- |
| CCc1sc(-c2ccccc2)nc1C1C(=O)[C@@H]2CC[C@@H](C2)C1=O (stereo partly drawn) [Compound T93] | 0 |
| CCc1sc(-c2ccc(Cl)s2)nc1C1C(=O)[C@@H]2CC[C@@H](C2)C1=O (stereo partly drawn) [Compound T36] | 20 |
| Cc1sc(-c2ccc(I)cc2)nc1C1C(=O)[C@@H]2CC[C@@H](C2)C1=O (stereo partly drawn) [Compound T30] | 100 |

system: Echinochloa crus-galli (ECHCG); experiment: Example B pre-emergence herbicidal activity; format: in vivo; settings: 312 h, rate 250 g/ha, evaluated after 13 days, read-out: Pre-Emergence Activity ECHCG (100=total damage to plant; 0=no damage to plant)
Experimental: as §1, §2, §3

| Structure (SMILES) | pest or weed control at 250 g/ha [%] |
| --- | --- |
| CCc1sc(-c2ccccc2)nc1C1C(=O)[C@@H]2CC[C@@H](C2)C1=O (stereo partly drawn) [Compound T93] | 40 |
| CCc1sc(-c2ccc(Cl)s2)nc1C1C(=O)[C@@H]2CC[C@@H](C2)C1=O (stereo partly drawn) [Compound T36] | 60 |
| Cc1sc(-c2ccc(I)cc2)nc1C1C(=O)[C@@H]2CC[C@@H](C2)C1=O (stereo partly drawn) [Compound T30] | 100 |

system: Setaria faberi (SETFA); experiment: Example B pre-emergence herbicidal activity; format: in vivo; settings: 312 h, rate 250 g/ha, evaluated after 13 days, read-out: Pre-Emergence Activity SETFA (100=total damage to plant; 0=no damage to plant)
Experimental: as §1, §2, §3

| Structure (SMILES) | pest or weed control at 250 g/ha [%] |
| --- | --- |
| CCc1sc(-c2ccccc2)nc1C1C(=O)[C@@H]2CC[C@@H](C2)C1=O (stereo partly drawn) [Compound T93] | 20 |
| CCc1sc(-c2ccc(Cl)s2)nc1C1C(=O)[C@@H]2CC[C@@H](C2)C1=O (stereo partly drawn) [Compound T36] | 70 |
| Cc1sc(-c2ccc(I)cc2)nc1C1C(=O)[C@@H]2CC[C@@H](C2)C1=O (stereo partly drawn) [Compound T30] | 100 |

system: Alopecurus myosuroides (ALOMY); experiment: Example B post-emergence herbicidal activity; format: in vivo; settings: 312 h, rate 250 g/ha, evaluated after 13 days, read-out: Post-emergence activity ALOMY (100=total damage to plant; 0=no damage to plant)
Experimental: as §1, §2, §3

| Structure (SMILES) | pest or weed control at 250 g/ha [%] |
| --- | --- |
| CCc1sc(-c2ccccc2)nc1C1C(=O)[C@@H]2CC[C@@H](C2)C1=O (stereo partly drawn) [Compound T93] | 30 |
| CCc1sc(-c2ccc(Cl)s2)nc1C1C(=O)[C@@H]2CC[C@@H](C2)C1=O (stereo partly drawn) [Compound T36] | 90 |
| Cc1sc(-c2ccc(I)cc2)nc1C1C(=O)[C@@H]2CC[C@@H](C2)C1=O (stereo partly drawn) [Compound T30] | 100 |

system: Amaranthus retoflexus (AMARE); experiment: Example B post-emergence herbicidal activity; format: in vivo; settings: Amaranthus retroflexus, 312 h, rate 250 g/ha, evaluated after 13 days, read-out: Post-emergence activity AMARE (100=total damage to plant; 0=no damage to plant)
Experimental: as §1, §2, §3

| Structure (SMILES) | pest or weed control at 250 g/ha [%] |
| --- | --- |
| CCc1sc(-c2ccccc2)nc1C1C(=O)[C@@H]2CC[C@@H](C2)C1=O (stereo partly drawn) [Compound T93] | 0 |
| CCc1sc(-c2ccc(Cl)s2)nc1C1C(=O)[C@@H]2CC[C@@H](C2)C1=O (stereo partly drawn) [Compound T36] | 0 |
| Cc1sc(-c2ccc(I)cc2)nc1C1C(=O)[C@@H]2CC[C@@H](C2)C1=O (stereo partly drawn) [Compound T30] | 0 |

system: Avena fatua (AVEFA); experiment: Example B post-emergence herbicidal activity; format: in vivo; settings: 312 h, rate 250 g/ha, evaluated after 13 days, read-out: Post-emergence activity AVEFA (100=total damage to plant; 0=no damage to plant)
Experimental: as §1, §2, §3

| Structure (SMILES) | pest or weed control at 250 g/ha [%] |
| --- | --- |
| CCc1sc(-c2ccccc2)nc1C1C(=O)[C@@H]2CC[C@@H](C2)C1=O (stereo partly drawn) [Compound T93] | 0 |
| CCc1sc(-c2ccc(Cl)s2)nc1C1C(=O)[C@@H]2CC[C@@H](C2)C1=O (stereo partly drawn) [Compound T36] | 20 |
| Cc1sc(-c2ccc(I)cc2)nc1C1C(=O)[C@@H]2CC[C@@H](C2)C1=O (stereo partly drawn) [Compound T30] | 100 |

system: Echinochloa crus-galli (ECHCG); experiment: Example B post-emergence herbicidal activity; format: in vivo; settings: 312 h, rate 250 g/ha, evaluated after 13 days, read-out: Post-emergence activity ECHCG (100=total damage to plant; 0=no damage to plant)
Experimental: as §1, §2, §3

| Structure (SMILES) | pest or weed control at 250 g/ha [%] |
| --- | --- |
| CCc1sc(-c2ccccc2)nc1C1C(=O)[C@@H]2CC[C@@H](C2)C1=O (stereo partly drawn) [Compound T93] | 70 |
| CCc1sc(-c2ccc(Cl)s2)nc1C1C(=O)[C@@H]2CC[C@@H](C2)C1=O (stereo partly drawn) [Compound T36] | 100 |
| Cc1sc(-c2ccc(I)cc2)nc1C1C(=O)[C@@H]2CC[C@@H](C2)C1=O (stereo partly drawn) [Compound T30] | 100 |

system: Setaria faberi (SETFA); experiment: Example B post-emergence herbicidal activity; format: in vivo; settings: 312 h, rate 250 g/ha, evaluated after 13 days, read-out: Post-emergence activity SETFA (100=total damage to plant; 0=no damage to plant)
Experimental: as §1, §2, §3

| Structure (SMILES) | pest or weed control at 250 g/ha [%] |
| --- | --- |
| CCc1sc(-c2ccccc2)nc1C1C(=O)[C@@H]2CC[C@@H](C2)C1=O (stereo partly drawn) [Compound T93] | 70 |
| CCc1sc(-c2ccc(Cl)s2)nc1C1C(=O)[C@@H]2CC[C@@H](C2)C1=O (stereo partly drawn) [Compound T36] | 100 |
| Cc1sc(-c2ccc(I)cc2)nc1C1C(=O)[C@@H]2CC[C@@H](C2)C1=O (stereo partly drawn) [Compound T30] | 100 |
